From patent publication US12686854B2, “Method for enhancing secretory function of mesenchymal stem cells and application thereof” (SHANDONG UNIVERSITY, priority 2020, dated 2026)

Columns and labels:
PI3K-AKT pathway = assay: In vitro ovary culture with VCD injury, Western blot of p-AKT and AKT; assay type: cell-based; conditions: PD4 mouse ovaries, 4 days in vitro culture, VCD 30 μM injury
Method: • S1. The concentrated conditioned medium was collected as described in Example 1. • S2. The solution for dissecting ovary containing 10% FBS and 1% penicillin-streptomycin was prepared in L15 medium. • S3. Ovarian culture preparation was performed. The medium of control group, VCD (30 μM) group, VCD+MSC-CM group and VCD+HA/MSC-CM group were prepared, and the embedded culture chamber was placed in 6-well plate containing 1.5 mL medium per well for 2 hours. • S4. The ovaries of postnatal day 4 (PD4) mice were isolated in freshly prepared dissecting solution under stereoscope. The surrounding tissues and ovarian capsule were gently peeled off, which should move quickly and not damage ovarian tissues. • S5. The obtained ovaries were washed three times with dissecting solution and transferred to an operation table as soon as possible. Before the ovaries were placed in the chambers of each group, the ovaries were washed three times with the corresponding medium of each group. After washing, they were placed in the middle of the culture chambers of each group and placed at intervals. The solution was changed on the second day. After 4 days of in vitro culture, the ovarian tissues were collected to extract protein. • S6. The changes of the expression of p-AKT and AKT protein were detected by Western blot.

[1] = test system: germ cells in mouse ovaries; assay: In vitro ovary culture with VCD injury, DDX4 immunohistochemical staining of germ cells; assay type: cell-based; conditions: 8 days in vitro culture

Q: What does the source list for C1CC2OC2CC1C1CO1 (stereo not drawn) [VCD, 4-vinylcyclonhexene diepoxide]?
A: expression level of p-AKT (PI3K-AKT pathway): decreased significantly; ovarian volume ([1]; VCD 30 μM): decreased; number of germ cells (DDX4 staining) ([1]; VCD 30 μM injury): decreased significantly
